Reference: paper PMC9561414 (2022)

Key:
Assay in all cases: RelE cleavage translation initiation assay (PAGE)
[1] = system: Pae Gdm WT (RNA, riboswitch) GGUUUCAGCCGGAAGCGGGACGACCCGUUUUCCCUCUUUCAUUGCGCGGGGACGACCCUGCAGAGAGGCUGAAAAUGUAGUGGAUCUAUCUCUUGCUCGUA; conditions: 30 mM K+ (KCl), 7 mM Mg2+, 70 mM NH4Cl, 50 mM HEPES-KOH pH 7.5, 37 °C, 70S ribosomes, IFs
[2] = system: Pae Gdm OFF (RNA, riboswitch) GGUUUCAGCCGGAAGCGGGAAAACCCGUUUUCCCUCUUUCAUUGCGCGGGGACGACCCUGCAGAGAGGCUGAAAAUGUAGUGGAUCUAUCUCUUGCUCGUA; conditions: 30 mM K+ (KCl), 7 mM Mg2+, 70 mM NH4Cl; 50 mM HEPES-KOH pH 7.5, 37 °C, 70S ribosomes, IFs; no response up to 25 mM guanidine
[3] = system: Vvu add U61C (RNA, riboswitch) GCUUCAUAUAAUCCUAAUGAUAUGGUUUGGGAGUUUCUACCAAGAGCCUUAAACUCUUGACUAUGAAGUCUGUCGCUUUAUCCGAAAUUUUAUAAAGAGAAGACUCAUGUAGAAUUACUUUGACCUGCCG; conditions: 30 mM K+ (KCl), 7 mM Mg2+, 70 mM NH4Cl, 50 mM HEPES-KOH pH 7.5, 37 °C, 70S ribosomes, IFs
[4] = system: Vvu add (WT) (RNA, riboswitch) GCUUCAUAUAAUCCUAAUGAUAUGGUUUGGGAGUUUCUACCAAGAGCCUUAAACUCUUGAUUAUGAAGUCUGUCGCUUUAUCCGAAAUUUUAUAAAGAGAAGACUCAUGUAGAAUUACUUUGACCUGCCG; conditions: 30 mM K+ (KCl), 7 mM Mg2+, 70 mM NH4Cl; 50 mM HEPES-KOH pH 7.5, 37 °C, 70S ribosomes, IFs; apparent

N=C(N)N
K1/2 ([1]; apparent, Hill 1.5 ± 0.2): 2.2 ± 0.2 mM | binding [2]: no

NC(N)=O
binding ([1]; no modulation at 50 mM urea): no

Nc1nc2[nH]cnc2c(=O)[nH]1
K1/2 ([3]; apparent): 87 ± 3 nM

Nc1ncnc2[nH]cnc12
K1/2 [4]: 1.4 ± 0.7 µM | binding ([3]; no response up to 500 μM adenine): no
